Activity calls are given as the source filed them. The rule behind the calls is not given here.
Tests used:
[1] = molecular target: Free fatty acid receptor 1 (Homo sapiens, UniProt O14842); test: Agonist activity at human FFA1 receptor expressed in CHO cells assessed as increase in intracellular calcium levels measured for 1 hr by Fluo 4-AM dye based FLIPR assay; format: functional, cell-based
[2] = Cmax in 12 hrs fasted Sprague-Dawley rat at 3 mg/kg, po administered as single dose measured up to 24 hrs by LC-PDA-MS/MS analysis; format: ADME, organism-based; design: dose 3 mg/kg, route oral; details: in vivo
[3] = Apparent volume of distribution during terminal phase in 12 hrs fasted Sprague-Dawley rat at 3 mg/kg, po administered as single dose measured up to 24 hrs by LC-PDA-MS/MS analysis; format: ADME, organism-based; details: in vivo
[4] = AUC (0 to 24 hrs) in 12 hrs fasted Sprague-Dawley rat at 3 mg/kg, po administered as single dose measured up to 24 hrs by LC-PDA-MS/MS analysis; format: ADME, organism-based; design: time < 24 hr, dose 3 mg/kg, route oral; details: in vivo
[5] = Half life in 12 hrs fasted Sprague-Dawley rat at 3 mg/kg, po administered as single dose measured up to 24 hrs by LC-PDA-MS/MS analysis; format: ADME, organism-based; details: in vivo
[6] = test system: Mus musculus; test: Induction of hypoglycemia in fasting normal ICR mouse assessed as reduction in blood glucose level at 60 mg/kg, po measured up to 3 hrs post dose; format: organism-based; details: in vivo
[7] = test system: Mus musculus; test: Antidiabetic activity in normal ICR mouse assessed as reduction in blood glucose AUC (0 to 120 mins) at 20 mg/kg, po administered 30 mins before oral glucose load by OGTT assay; format: functional, organism-based
[8] = test system: Mus musculus; test: Antidiabetic activity in normal ICR mouse assessed as reduction in blood glucose level at 20 mg/kg, po administered 30 mins before oral glucose load by OGTT assay; format: functional, organism-based
[9] = test system: Mus musculus; test: Induction of hypoglycemia in fasting normal ICR mouse assessed as reduction in blood glucose level at 15 mg/kg, po measured up to 3 hrs post dose; format: organism-based; details: in vivo

Free fatty acid receptor 1, sequence (O14842 whole entry): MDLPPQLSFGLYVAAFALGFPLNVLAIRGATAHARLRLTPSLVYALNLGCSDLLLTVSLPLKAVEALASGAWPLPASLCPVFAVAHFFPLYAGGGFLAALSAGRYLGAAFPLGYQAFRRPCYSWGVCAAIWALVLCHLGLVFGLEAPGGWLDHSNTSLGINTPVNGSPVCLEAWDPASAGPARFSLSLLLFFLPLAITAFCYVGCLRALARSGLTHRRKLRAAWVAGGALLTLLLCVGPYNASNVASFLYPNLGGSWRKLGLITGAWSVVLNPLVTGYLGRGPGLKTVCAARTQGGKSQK

Row | EC50 [1] [nM] | Cmax [2] [ng/mL] | Vz/F [3] [L/kg] | AUC [4] [ng·h/mL] | t1/2 [5] [h] | Structure (SMILES) | Activity [6] | Activity [7] | Activity ([7]; tested as the 2H-labelled form) | Activity [8] | Activity ([8]; tested as the 2H-labelled form) | Activity [9]
1 | 37.4 | 2910 | 0.049 | 46492.43 | 3.14 | [2H]C([2H])(Cc1ccc(OCc2cccc(-c3c(C)noc3C)c2)cc1F)C(=O)O | Non-Toxic | – | – | – | – | –
2 | 32.5 | 1730 | 0.074 | 14063.25 | 1.75 | Cc1noc(C)c1-c1cccc(COc2ccc(CCC(=O)O)c(F)c2)c1 | – | inactive | Active | inactive | Active | –
3 | – | – | – | – | – | COc1ccc(Cl)cc1C(=O)NCCc1ccc(S(=O)(=O)NC(=O)NC2CCCCC2)cc1 [GLYBURIDE] | – | – | – | – | – | Toxic
4 | 28.9 | 2360 | 0.057 | 31694.16 | 2.58 | [2H]C([2H])(Cc1ccc(OCc2cccc(-c3c(C)noc3C)c2)cc1)C(=O)O | – | – | – | – | – | –
